Reference: patent US8618170B2, “Oral formulations of bis(thiohydrazide amides)” (Synta Pharmaceuticals Corp., priority 2007, dated 2013)
Blank lines part the entries; values can stand above or below the compound they belong to.

Legend:
[1] = Pharmacokinetics after IV or oral administration in mouse; type: in vivo; conditions: female, plasma, CD-1 mouse F
Description: (§1) The pharmacokinetics of compounds of the invention were compared in mouse, rat and dog by either intravenous or oral administration in various formulations including drug powder in capsules or in combination with generally recognized as safe (GRAS) excipients. After administration in animals, blood samples were collected at the appropriate time points and plasma was obtained for bioanalysis. Compounds were extracted by protein precipitation and analyzed by LC-UV or LC-MS/MS. PK analysis was performed by noncompartmental analysis using WinNonlin. Oral bioavailability (% F) was calculated based on AUC of Compound 1.
(§2) Blood was collected into heparinized tubes that contained dithioreitol (DTT; ˜2 mg/mL) at each time point. After centrifugation plasma was transferred to a new tube that contained DMSO (Plasma:DMSO ration 2:1 for rat/mouse, 9:1 for dog).
(§3) The pharmacokinetic parameters for compounds of the invention were determined from the plasma concentration data using the Noncompartmental Analysis module in WinNonlin, version 5.0 (Pharsight Corporation).

[2] = Pharmacokinetics after IV or oral administration in rat; type: in vivo, SD rat; conditions: for AUC(0-inf) / Cmax / Tmax / half-life / bioavailability: male, Sprague-Dawley, plasma
Description: as §1, §2, §3

[3] = Pharmacokinetics after IV or oral administration in dog; type: in vivo; conditions: Beagle dog M; for AUC(0-inf) / Cmax / Tmax / half-life / bioavailability: male, plasma
Description: as §1, §2, §3

Aqueous solubility = type: physicochemical; conditions: water
[4] = IV bolus, EES (sol'n), 10 mg/kg
[5] = PO, TPGS/PEG400 (sol'n), 100 mg/kg
[6] = rat, iv, 25 mg/kg, SD rat M, IV bolus, EES (sol'n)
[7] = rat, iv, 50 mg/kg, SD rat M, IV bolus, Phospholipid
[8] = rat, iv, 80 mg/kg, SD rat M, IV bolus, HP-β-CD/saline
[9] = rat, iv, 80 mg/kg, SD rat M, IV bolus, Lyophilized HP-β-CD/saline
[10] = rat, other: PI, 80 mg/kg, SD rat M, route PI, Lyophilized HP-β-CD/saline, 80 mg/kg
[11] = rat, po, 50 mg/kg, SD rat M, 0.5% MC (suspension)
[12] = rat, po, 50 mg/kg, SD rat M, Phospholipid
[13] = rat, po, 50 mg/kg, SD rat M, TPGS/PEG400 (sol'n)
[14] = rat, po, 50 mg/kg, SD rat M, nanoparticles (colloidal dispersion)
[15] = rat, po, 80 mg/kg, SD rat M, HP-β-CD/saline
[16] = rat, PO, nanoparticles (colloidal dispersion) vs 0.5% methylcellulose suspension
[17] = beagle, dog, iv, 10 mg/kg, 1 h IV infusion, EES (sol'n)
[18] = beagle, dog, po, 50 mg/kg, TPGS/PEG400 (sol'n)
[19] = beagle, dog, po, 50 mg/kg, capsule (powder), 50 mg/kg as Compound 1 (free acid)
[20] = beagle, dog, po, 50 mg/kg, nanoparticles (colloidal dispersion)
[21] = rat, po, 50 mg/kg, SD rat M, capsule (powder), 50 mg/kg as Compound 1 (free acid)
[22] = rat, iv, 25 mg/kg, SD rat M, IV bolus, Saline
[23] = rat, po, 50 mg/kg, SD rat M, Saline
[24] = PO, capsule (powder), 50 mg/kg as Compound 1 (free acid)

Compound: CN(NC(=O)CC(=O)NN(C)C(=S)c1ccccc1)C(=S)c1ccccc1 [Compound 1]
AUC(0-inf) [1, 4]: 3950 ng·h/mL
Cmax [1, 4]: 6500 ng/mL
Tmax [1, 4]: 4.98 min
half-life [1, 4]: 54 min
AUC(0-inf) [1, 5]: 8640 ng·h/mL
Cmax [1, 5]: 12400 ng/mL
Tmax [1, 5]: 15 min
half-life [1, 5]: 60 min
bioavailability ([1]; PO, TPGS/PEG400 (sol'n), 100 mg/kg, reference Compound 1 IV bolus): 21.9%
AUC(0-inf) [2, 6]: 9270 ng·h/mL
Cmax [2, 6]: 29000 ng/mL
Tmax [2, 6]: 4.98 min
half-life [2, 6]: 102 min
AUC(0-inf) [2, 7]: 29700 ng·h/mL
Cmax [2, 7]: 95300 ng/mL
Tmax [2, 7]: 4.98 min
half-life [2, 7]: 54 min
AUC(0-inf) [2, 8]: 23700 ng·h/mL
Cmax [2, 8]: 58800 ng/mL
Tmax [2, 8]: 4.98 min
half-life [2, 8]: 48 min
AUC(0-inf) [2, 9]: 25700 ng·h/mL
Cmax [2, 9]: 63800 ng/mL
Tmax [2, 9]: 4.98 min
half-life [2, 9]: 24 min
AUC(0-inf) [2, 10]: 5190 ng·h/mL
Cmax [2, 10]: 2550 ng/mL
Tmax [2, 10]: 15 min
bioavailability [2, 10]: 21.3%
half-life [2, 10]: 138 min
AUC(0-inf) [2, 11]: 1220 ng·h/mL
Cmax [2, 11]: 280 ng/mL
Tmax [2, 11]: 30 min
half-life [2, 11]: 192 min
bioavailability ([2]; rat, po, 50 mg/kg, SD rat M, 0.5% MC (suspension), reference Compound 1 IV bolus): 6.6%
AUC(0-inf) [2, 12]: 3790 ng·h/mL
Cmax [2, 12]: 2050 ng/mL
Tmax [2, 12]: 15 to 30 min
bioavailability [2, 12]: 8.8%
half-life [2, 12]: 54 min
AUC(0-inf) [2, 13]: 2770 ng·h/mL
Cmax [2, 13]: 1410 ng/mL
Tmax [2, 13]: 18 min
half-life [2, 13]: 126 min
bioavailability ([2]; rat, po, 50 mg/kg, SD rat M, TPGS/PEG400 (sol'n), reference Compound 1 IV bolus): 14.9%
AUC(0-inf) [2, 14]: 2370 ng·h/mL
Cmax [2, 14]: 1070 ng/mL
Tmax [2, 14]: 18 min
half-life [2, 14]: 186 min
bioavailability ([2]; rat, po, 50 mg/kg, SD rat M, nanoparticles (colloidal dispersion), reference Compound 1 IV bolus): 12.8%
AUC(0-inf) [2, 15]: 4330 ng·h/mL
Cmax [2, 15]: 2210 ng/mL
Tmax [2, 15]: 15 to 30 min
bioavailability [2, 15]: 17.5%
half-life [2, 15]: 72 min
AUC after nanoparticles compared with the suspension [2, 16]: higher
Cmax after nanoparticles compared with the suspension [2, 16]: higher
AUC(0-inf) [3, 17]: 25800 ng·h/mL
Cmax [3, 17]: 11600 ng/mL
Tmax [3, 17]: 60 min
half-life [3, 17]: 72 min
AUC(0-inf) [3, 18]: 87500 ng·h/mL
Cmax [3, 18]: 38100 ng/mL
Tmax [3, 18]: 24 min
half-life [3, 18]: 132 min
bioavailability ([3]; beagle, dog, po, 50 mg/kg, TPGS/PEG400 (sol'n), reference Compound 1 IV infusion): 68%
AUC(0-inf) [3, 19]: 6520 ng·h/mL
Cmax [3, 19]: 1330 ng/mL
Tmax [3, 19]: 120 min
half-life [3, 19]: 150 min
bioavailability ([3]; beagle, dog, po, 50 mg/kg, capsule (powder), 50 mg/kg as Compound 1 (free acid), reference Compound 1 IV infusion, based on AUC of Compound 1): < 5%
AUC(0-inf) [3, 20]: 57500 ng·h/mL
Cmax [3, 20]: 16800 ng/mL
Tmax [3, 20]: 48 min
half-life [3, 20]: 288 min
bioavailability ([3]; beagle, dog, po, 50 mg/kg, nanoparticles (colloidal dispersion), reference Compound 1 IV infusion): 44.6%
solubility (Aqueous solubility): < 0.1 mg/mL

% F ([2]; SD rat M, PO, capsule (powder), 50 mg/kg as Compound 1 (free acid), reference Compound 1 IV bolus, based on AUC of Compound 1, 50 mg/kg): 7.5%
AUC(0-inf) [2, 21]: 1410 ng·h/mL
Cmax [2, 21]: 640 ng/mL
Tmax [2, 21]: 36 min
half-life [2, 21]: 234 min
bioavailability ([2]; rat, po, 50 mg/kg, SD rat M, capsule (powder), 50 mg/kg as Compound 1 (free acid), reference Compound 1 IV bolus, based on AUC of Compound 1): 5.7%
% F ([3]; PO, capsule (powder), 50 mg/kg as Compound 1 (free acid), reference Compound 1 IV infusion, based on AUC of Compound 1, 50 mg/kg): 80.2%
AUC(0-inf) [3, 19]: 103000 ng·h/mL
Cmax [3, 19]: 40400 ng/mL
Tmax [3, 19]: 48 min
half-life [3, 19]: 126 min
solubility (Aqueous solubility): ~50 mg/mL
Compound: CN(/N=C(\[O-])C/C([O-])=N/N(C)C(=S)c1ccccc1)C(=S)c1ccccc1.[Na+].[Na+] [Compound 19]

Compound: CN(NC(=O)CC(=O)NN(C)C(=S)c1ccccc1)C(=S)c1ccccc1 [Compound 22]
bioavailability ([2]; SD rat M, PO, Saline, 50 mg/kg): 10.5%
AUC(0-inf) [2, 22]: 11600 ng·h/mL
Cmax [2, 22]: 39100 ng/mL
half-life [2, 22]: 222 min
AUC(0-inf) [2, 23]: 4760 ng·h/mL
Cmax [2, 23]: 2400 ng/mL
Tmax [2, 23]: 37.8 min
half-life [2, 23]: 150 min

Compound: CN(NC(=O)CC(=O)NN(C)C(=S)c1ccccc1)C(=S)c1ccccc1 [Compound 26]
AUC(0-inf) [2, 21]: 1080 ng·h/mL
Cmax [2, 21]: 250 ng/mL
Tmax [2, 21]: 54 min
half-life [2, 21]: 222 min
AUC(0-inf) [3, 24]: 45600 ng·h/mL
Cmax [3, 24]: 19700 ng/mL
Tmax [3, 24]: 60 min
half-life [3, 24]: 180 min
